Laboratory results: PubChem BioAssay AID330 (DTP/NCI, 2004)
Where “and” joins values, the source holds several entries; their conditions need not be identical. Equal values may be shown once. Inconclusive results and toxic doses are left out.

Test system: P388 leukemia ip, CD2F1 mice, survival T/C
Test: NCI In Vivo Anticancer Drug Screen. Data for tumor model P388 Leukemia (intraperitoneal) in CD2F1 (CDF1) mice
Details: endpoint: median survival time, higher = longer survival
Protocol: The antitumor activity of compounds was measured in mice bearing transplantable tumors. Survival or tumor size were measured and the results are expressed as the measurement made in the treated group (T) divided by the measurement made in the vehicle treated control group (C). The tumor model used in this assay is P388 Leukemia (intraperitoneal) in CD2F1 (CDF1) mice

For `COc1cccc(OC)c1C(c1c(OC)cccc1OC)c1c(OC)cccc1OC`, which T/C (dose: 22.0 mg/kg/injection, schedule: Q04DX003 (ip), vehicle: saline with Tween-80) is on record?
Its T/C is 109 % of control.

What about the T/C (dose: 33.0 mg/kg/injection, schedule: Q04DX003 (ip), vehicle: saline with Tween-80) of the same compound?
Its T/C is 113 % of control.

And the T/C (dose: 75.0 mg/kg/injection, schedule: Q04DX003 (ip), vehicle: saline with Tween-80)?
The T/C was 109 % of control.

`CC(=O)N1C=CC(C2C=CN(C(C)=O)C=C2)C=C1` was tested. Which T/C (dose: 10.0 mg/kg/injection, schedule: Q01DX009 (ip), vehicle: saline with Tween-80) did it give?
The T/C was 109 % of control.

And the T/C (dose: 20.0 mg/kg/injection, schedule: Q01DX009 (ip), vehicle: saline with Tween-80)?
The T/C was 96 % of control.

And the T/C (dose: 40.0 mg/kg/injection, schedule: Q01DX009 (ip), vehicle: saline with Tween-80)?
Its T/C is 100 % of control.

What does the source list for `C/C(=N\NC(N)=Nc1ccc(Cl)cc1)c1ccc2c(c1)Cc1ccccc1-2`?
T/C (dose: 100.0 mg/kg/injection, schedule: Q04DX002 (ip), vehicle: saline with Tween-80): 104 % of control; T/C (dose: 200.0 mg/kg/injection, schedule: Q04DX002 (ip), vehicle: saline with Tween-80): 111 % of control; T/C (dose: 400.0 mg/kg/injection, schedule: Q04DX002 (ip), vehicle: saline with Tween-80): 114 % of control

For `Cc1nc2sccn2c1C#N`, which T/C (dose: 12.5 mg/kg/injection, schedule: Q01DX001 (ip), vehicle: Klucel (hydroxypropylcellulose) (HPC)) is on record?
The T/C was 117 % of control.

What about the T/C (dose: 25.0 mg/kg/injection, schedule: Q01DX001 (ip), vehicle: Klucel (hydroxypropylcellulose) (HPC)) of the same compound?
The T/C was 102 % of control.

And the T/C (dose: 50.0 mg/kg/injection, schedule: Q01DX001 (ip), vehicle: Klucel (hydroxypropylcellulose) (HPC))?
Its T/C is 102 % of control.

What does the source list for `Cc1c(COC(=O)NC2CCCCC2)c(COC(=O)NC2CCCCC2)c2c3ccccc3c3ccccc3n12`?
T/C (dose: 12.5 mg/kg/injection, schedule: Q01DX009 (ip), vehicle: distilled water + Tween-80): 106 % of control; T/C (dose: 25.0 mg/kg/injection, schedule: Q01DX009 (ip), vehicle: distilled water + Tween-80): 100 % of control and 93 % of control; T/C (dose: 50.0 mg/kg/injection, schedule: Q01DX009 (ip), vehicle: distilled water + Tween-80): 101 % of control and 106 % of control; T/C (dose: 100.0 mg/kg/injection, schedule: Q01DX009 (ip), vehicle: distilled water + Tween-80): 101 % of control and 110 % of control; T/C (dose: 200.0 mg/kg/injection, schedule: Q01DX009 (ip), vehicle: distilled water + Tween-80): 110 % of control

What does the source list for `CCOP(=O)(Nc1cc2c(=O)n(C)cnc2cc1Cl)OCC`?
T/C (dose: 100.0 mg/kg/injection, schedule: Q04DX003 (ip), vehicle: saline with Tween-80): 105 % of control; T/C (dose: 200.0 mg/kg/injection, schedule: Q04DX003 (ip), vehicle: saline with Tween-80): 100 % of control

What does the source list for `O=C1OCCOCCOC(=O)C(=O)OCCOCCOC1=O`?
T/C (dose: 100.0 mg/kg/injection, schedule: Q04DX003 (ip), vehicle: Klucel (hydroxypropylcellulose) (HPC)): 98 % of control; T/C (dose: 200.0 mg/kg/injection, schedule: Q04DX003 (ip), vehicle: Klucel (hydroxypropylcellulose) (HPC)): 100 % of control; T/C (dose: 400.0 mg/kg/injection, schedule: Q04DX003 (ip), vehicle: Klucel (hydroxypropylcellulose) (HPC)): 98 % of control

Which T/C (dose: 50.0 mg/kg/injection, schedule: Q01DX001 (ip), vehicle: saline) does the source give for `Nc1nc2c(c(=O)[nH]1)[N+]1=CN(c3ccc(C(=O)NC(CCC(=O)O)C(=O)O)cc3)CC1CC2` (stereo not given) here?
The T/C was 96 % of control.

And the T/C (dose: 50.0 mg/kg/injection, schedule: Q04DX003 (ip), vehicle: saline)?
The T/C was 97 % of control.

And the T/C (dose: 100.0 mg/kg/injection, schedule: Q01DX001 (ip), vehicle: saline)?
Its T/C is 94 % of control.

What about the T/C (dose: 100.0 mg/kg/injection, schedule: Q04DX003 (ip), vehicle: saline) of the same compound?
Its T/C is 100 % of control.

And the T/C (dose: 200.0 mg/kg/injection, schedule: Q01DX001 (ip), vehicle: saline)?
The T/C was 94 % of control.

What about the T/C (dose: 200.0 mg/kg/injection, schedule: Q04DX003 (ip), vehicle: saline) of the same compound?
The T/C was 96 % of control.

`O=C(CC1NCCCC1O)Cn1cnc2ccccc2c1=O` (stereo not given) was tested. Which T/C (dose: 1.0 mg/kg/injection, schedule: Q01DX009 (ip), vehicle: distilled water + alcohol) did it give?
The T/C was 116 % of control.

And the T/C (dose: 2.0 mg/kg/injection, schedule: Q01DX009 (ip), vehicle: distilled water + alcohol)?
Its T/C is 107 % of control.

What about the T/C (dose: 4.0 mg/kg/injection, schedule: Q01DX009 (ip), vehicle: distilled water + alcohol) of the same compound?
The T/C was 107 % of control.

`CC1(C)N=C(N)N=C(N)N1c1ccc(CCCCc2ccc(Cl)cc2Cl)cc1` was tested. Which T/C (dose: 3.13 mg/kg/injection, schedule: Q01DX009 (ip), vehicle: saline with Tween-80) did it give?
Its T/C is 118 % of control.

And the T/C (dose: 12.5 mg/kg/injection, schedule: Q01DX009 (ip), vehicle: saline with Tween-80)?
Its T/C is 122 % of control.

What does the source list for `O=C1NC2(CCCC2)C(=O)N1CCCN(CCCl)CCCl`?
T/C (dose: 1.5 mg/kg/injection, schedule: Q01DX005 (ip), vehicle: saline): 173 % of control; T/C (dose: 3.0 mg/kg/injection, schedule: Q01DX005 (ip), vehicle: saline): 176 % of control and 185 % of control; T/C (dose: 6.0 mg/kg/injection, schedule: Q01DX005 (ip), vehicle: saline): 179 % of control and 204 % of control; T/C (dose: 12.0 mg/kg/injection, schedule: Q01DX005 (ip), vehicle: saline): 203 % of control and 288 % of control

`CC1OC2COC(C)OC2C(C2CN2)O1` (stereo not given) was tested. Which T/C (dose: 50.0 mg/kg/injection, schedule: Q01DX009 (ip), vehicle: saline) did it give?
The T/C was 110 % of control.

And the T/C (dose: 100.0 mg/kg/injection, schedule: Q01DX009 (ip), vehicle: saline)?
The T/C was 100 % of control.

And the T/C (dose: 200.0 mg/kg/injection, schedule: Q01DX009 (ip), vehicle: saline)?
Its T/C is 117 % of control.
